Measured values taken from article PMC7166077, “A systematic strategy for estimating hERG block potency and its implications in a new cardiac safety paradigm” (Toxicology and Applied Pharmacology, 2020).

Target: T1, hERG (Kv11.1 potassium channel) (Homo sapiens, UniProt Q12809)
T1 construct: gene KCNH2
Assay: automated patch clamp, multi-site, Bayesian hierarchical model

T1 sequence (Q12809 whole entry): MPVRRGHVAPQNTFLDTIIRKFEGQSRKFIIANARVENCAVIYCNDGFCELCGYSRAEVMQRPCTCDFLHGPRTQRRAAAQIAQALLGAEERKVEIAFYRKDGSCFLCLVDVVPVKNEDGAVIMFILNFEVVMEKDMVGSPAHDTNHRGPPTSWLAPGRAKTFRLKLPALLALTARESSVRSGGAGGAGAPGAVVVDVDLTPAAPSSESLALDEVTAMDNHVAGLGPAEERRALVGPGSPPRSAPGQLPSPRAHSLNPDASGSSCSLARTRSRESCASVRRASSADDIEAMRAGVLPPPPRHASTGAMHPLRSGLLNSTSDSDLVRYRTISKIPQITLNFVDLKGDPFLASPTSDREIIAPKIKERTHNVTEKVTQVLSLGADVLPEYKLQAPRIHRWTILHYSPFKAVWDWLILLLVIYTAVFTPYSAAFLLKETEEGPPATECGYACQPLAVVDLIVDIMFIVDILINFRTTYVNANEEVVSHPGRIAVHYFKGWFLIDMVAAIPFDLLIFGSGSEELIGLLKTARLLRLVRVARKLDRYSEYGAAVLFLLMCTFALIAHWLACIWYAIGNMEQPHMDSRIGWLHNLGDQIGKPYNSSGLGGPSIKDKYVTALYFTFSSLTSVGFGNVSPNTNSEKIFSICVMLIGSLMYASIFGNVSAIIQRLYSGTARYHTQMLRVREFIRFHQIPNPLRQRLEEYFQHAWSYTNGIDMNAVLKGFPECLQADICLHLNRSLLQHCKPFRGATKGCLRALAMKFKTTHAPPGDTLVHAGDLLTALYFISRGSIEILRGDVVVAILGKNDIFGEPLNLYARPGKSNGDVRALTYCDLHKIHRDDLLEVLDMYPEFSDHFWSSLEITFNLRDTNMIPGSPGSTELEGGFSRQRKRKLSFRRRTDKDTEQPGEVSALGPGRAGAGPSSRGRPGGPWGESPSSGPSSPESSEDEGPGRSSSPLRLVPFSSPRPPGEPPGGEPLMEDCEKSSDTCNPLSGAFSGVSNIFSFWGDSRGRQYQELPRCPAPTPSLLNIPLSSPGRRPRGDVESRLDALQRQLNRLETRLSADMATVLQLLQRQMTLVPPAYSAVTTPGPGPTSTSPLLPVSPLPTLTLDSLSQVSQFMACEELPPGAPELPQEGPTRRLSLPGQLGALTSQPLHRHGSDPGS

Compound CCOC(=O)C1=C(C)NC(C)=C(C(=O)OC)C1c1cccc([N+](=O)[O-])c1 (stereo not shown) [nitrendipine] has an IC50 of 20 µM.
